Assay results published in the supplement of paper PMC10307832.

Key:
Assay in all cases: relative viability (nuclei count vs DMSO), 5 days (fraction); higher = more cells survive
[1] = compound: CC1=CC(=CC=C1)NC2=NC(=CS2)C3=CC=NC=C3 + Cc1nc(Nc2ncc(C(=O)Nc3c(C)cccc3Cl)s2)cc(N2CCN(CCO)CC2)n1 [Dasatinib] (partner 0.075 µM)
Method in brief: (§1)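 The day after seeding in 1536-well plates, lung cancer cell lines were treated by pin tool with a single drug, or with a fixed anchor-drug dose together with five library-drug doses (not always all listed) in √10 steps. After 5 days, a combined fix-and-stain solution (final 0.05% Triton X-100, 1% formaldehyde, 1 ug/ml Hoechst) was added. Nuclei counted on 4× images gave relative viability as treated counts over vehicle counts, reported as the median of duplicate plates.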

[2] = compound: Cc1ccc(NC(=O)c2ccc(CN3CCN(C)CC3)cc2)cc1Nc1nc(-c2cccnc2)cs1 [Masitinib] + CC(=O)Nc1cccc(-n2c(=O)n(C3CC3)c(=O)c3c(Nc4ccc(I)cc4F)n(C)c(=O)c(C)c32)c1 [Trametinib] (partner 0.02 µM)
Method in brief: as §1

[3] = compound: Cc1ccc(NC(=O)c2ccc(CN3CCN(C)CC3)cc2)cc1Nc1nc(-c2cccnc2)cs1 [Masitinib] + COc1cc2c(Oc3ccc(NC(=O)C4(C(=O)Nc5ccc(F)cc5)CC4)cc3F)ccnc2cc1OCCCN1CCOCC1 [Foretinib] (partner 0.25 µM)
Method in brief: as §1

[4] = compound: Cc1ccc(NC(=O)c2ccc(CN3CCN(C)CC3)cc2)cc1Nc1nc(-c2cccnc2)cs1 [Masitinib] + CS(=O)(=O)N1CCN(Cc2cc3nc(-c4cccc5[nH]ncc45)nc(N4CCOCC4)c3s2)CC1 [Pictilisib] (partner 1 µM)
Method in brief: as §1

Row | Cell Line | relative viability ([1]; first compound 0.253 µM) | relative viability ([1]; first compound 0.8 µM) | relative viability ([1]; first compound 8 µM) | relative viability ([2]; first compound 0.01 µM) | relative viability ([2]; first compound 0.03162 µM) | relative viability ([2]; first compound 0.1 µM) | relative viability ([2]; first compound 0.3162 µM) | relative viability ([2]; first compound 1 µM) | relative viability ([3]; first compound 0.01 µM) | relative viability ([3]; first compound 0.03162 µM) | relative viability ([3]; first compound 0.1 µM) | relative viability ([3]; first compound 0.3162 µM) | relative viability ([3]; first compound 1 µM) | relative viability ([4]; first compound 0.01 µM) | relative viability ([4]; first compound 0.03162 µM) | relative viability ([4]; first compound 0.1 µM) | relative viability ([4]; first compound 0.3162 µM) | relative viability ([4]; first compound 1 µM) | relative viability ([1]; first compound 0.08 µM) | relative viability ([1]; first compound 2.53 µM)
1 | LK-2 | 0.241 | 0.421 | 0.327 | 0.743 | 0.783 | 0.828 | 0.728 | 0.748 | 1.19 | 1.3 | 1.4 | 1.13 | 1.22 | 0.595 | 0.656 | 0.671 | 0.569 | 0.641 | – | –
2 | NCI-H1563 | 0.41 | 0.498 | 0.434 | – | – | – | – | – | 0.989 | 0.932 | 0.87 | 0.877 | 0.895 | 0.656 | 0.641 | 0.647 | 0.665 | 0.676 | 0.48 | 0.404
3 | COR-L23 | 0.511 | 0.389 | 0.402 | 0.543 | 0.641 | 0.673 | 0.686 | 0.571 | 0.935 | 1.05 | 1.1 | 1.02 | 0.92 | 0.751 | 0.749 | 0.844 | 0.932 | 0.893 | 0.479 | 0.338
4 | ABC-1 | 0.473 | 0.552 | 0.404 | – | – | – | – | – | 0.93 | 1.07 | 1.21 | 1.05 | 1 | 0.686 | 0.623 | 0.977 | 0.652 | 0.61 | 0.659 | 0.445
5 | SW 900 | 0.477 | 0.527 | 0.383 | 0.719 | 0.736 | 0.787 | 0.821 | 0.843 | 0.757 | 0.846 | 1.04 | 0.798 | 1.03 | – | – | – | – | – | 0.358 | 0.615
6 | PC-14 | 0.247 | 0.27 | 0.178 | 0.774 | 0.634 | 0.909 | 0.729 | 0.821 | 0.809 | 0.831 | 0.857 | 0.957 | 0.949 | 0.603 | 0.613 | 0.77 | 0.747 | 0.657 | 0.237 | 0.225
7 | NCI-H1648 | – | – | – | 0.523 | 0.436 | 0.414 | – | 0.442 | – | – | – | – | – | – | – | – | – | – | – | –
8 | A549 | – | – | – | – | – | – | – | – | 0.881 | 0.826 | 1 | 0.898 | 1.23 | 0.459 | 0.48 | 0.478 | 0.576 | 0.566 | – | –
9 | A-427 | 0.658 | 0.681 | 0.518 | 0.623 | 0.74 | 0.842 | 0.75 | 0.676 | – | 1.13 | – | 1.01 | 1 | – | 0.55 | – | 0.687 | 0.601 | 0.61 | 0.681
10 | NCI-H1915 | 0.328 | 0.289 | 0.328 | – | 0.635 | – | 0.302 | 0.302 | – | 1.13 | – | 1.1 | 1.11 | – | 0.97 | 0.664 | 0.853 | 0.908 | 0.282 | 0.318
11 | LCLC-97TM1 | 0.824 | 0.963 | 1.01 | 0.184 | 0.19 | 0.19 | 0.231 | 0.186 | – | 0.966 | 0.941 | 1.08 | 0.874 | 0.156 | 0.172 | 0.287 | 0.218 | 0.2 | 0.898 | 0.856
12 | NCI-H1734 | 0.435 | 0.491 | 0.538 | 0.682 | 0.661 | 0.759 | 0.696 | 0.663 | 0.922 | 0.914 | 0.898 | 1.05 | 0.811 | 0.441 | 0.459 | 0.532 | 0.412 | 0.395 | 0.471 | 0.503
13 | LCLC-103H | 0.44 | 0.41 | 0.385 | – | 0.624 | 0.693 | 0.713 | 0.669 | 0.743 | 0.684 | 0.773 | 0.703 | 0.735 | 0.557 | 0.621 | 0.596 | 0.583 | 0.543 | 0.517 | 0.386
14 | RERF-LC-KJ | 0.694 | 0.64 | 0.515 | 0.769 | 0.836 | 0.834 | 0.809 | 0.763 | 0.734 | 0.883 | 0.987 | 0.746 | 0.797 | 0.496 | 0.514 | 0.617 | 0.404 | 0.457 | 0.533 | 0.573
15 | NCI-H1703 | – | – | – | – | – | – | – | – | 0.315 | 0.308 | 0.287 | 0.342 | 0.328 | 0.226 | 0.255 | 0.217 | 0.203 | 0.201 | – | –
16 | Calu-6 | – | – | – | – | – | – | – | – | 0.814 | 0.822 | 0.931 | 0.825 | 0.862 | 0.905 | 0.857 | 1.06 | 0.988 | 0.861 | – | –
17 | NCI-H2342 | 0.303 | 0.302 | 0.311 | 0.89 | 0.7 | 0.844 | 0.797 | 0.875 | 1.09 | 0.875 | 1.08 | 1.13 | 1.01 | – | – | – | – | – | 0.306 | 0.278
18 | EBC-1 | – | – | – | – | – | – | – | – | 0.112 | 0.096 | 0.108 | 0.0908 | 0.126 | 0.348 | 0.357 | 0.427 | 0.309 | 0.413 | – | –
19 | NCI-H522 | 0.792 | 0.933 | 0.983 | 0.742 | 0.784 | 0.787 | 0.73 | 0.721 | – | – | – | – | – | – | – | – | – | – | 0.851 | 0.809
20 | IA-LM | – | – | – | – | – | – | – | – | 1.24 | 1.09 | 1.13 | 1.12 | 1.36 | 0.291 | 0.415 | 0.353 | 0.455 | 0.418 | – | –
21 | NCI-H1299 | – | – | – | – | – | – | – | – | 1.04 | 1.06 | 1.09 | 1.09 | 1.07 | 0.8 | 0.785 | 0.81 | 0.947 | 0.736 | – | –
22 | NCI-H1792 | – | 0.832 | 0.63 | 0.427 | 0.307 | 0.37 | 0.503 | 0.498 | – | – | – | – | – | 0.277 | 0.209 | 0.288 | 0.197 | 0.225 | 0.689 | 0.54
